Tested on: CML-CP with T315I mutation
Assay: Phase I dose escalation and dose expansion clinical trial: efficacy in CML-CP subjects with T315I mutation
Type: in vivo, humans
Excerpt: This study is a single-arm, open-label, dose-escalation and dose-expansion Phase I clinical trial.
The dose-escalation phase of this trial consists of about 8 dose groups, with oral administration under fasting conditions. Subjects in all dose groups will receive a single dose on Day 1 (D1), followed by pharmacokinetic (PK) and tolerability observations. […] After entering the multiple-dose period, subjects in the first dose group will initially receive twice-daily (BID) dosing (if PK data from the single-dose period are available, the dosing frequency during the multiple-dose period may be adjusted based on the PK data). The dosing frequency for subjects in subsequent dose groups after entering the multiple-dose period will be determined based on available PK and tolerability data. Throughout the trial, dosing frequency for all subjects may be adjusted based on continuously updated safety and PK data.
A continuous reassessment method (CRM) based on the principle of the escalation with overdose control (EWOC) design will be used to recommend the next specific dose for each dose escalation, thereby completing dose escalation and determining the maximum tolerated dose (MTD). If both the investigator and sponsor believe that higher dose groups may offer better efficacy and manageable safety, the EWOC-based CRM method may be used to explore higher doses. All enrolled subjects will receive long-term treatment with the test drug and undergo evaluations for safety, tolerability, and preliminary efficacy.
After obtaining certain research data from the dose-escalation phase, the investigator may comprehensively consider safety, efficacy, and other information to decide whether to enroll additional subjects at the MTD and/or lower dose levels to determine the recommended Phase II dose (RP2D). Two to four suitable dosing regimens will be selected for expansion in the target population (including subjects enrolled at the target dose levels during the escalation phase).
A total of 8 dose groups were established: 10 mg bid, 20 mg bid, 40 mg bid, 80 mg bid, 40 mg qd, 80 mg qd, 160 mg qd, and 240 mg qd.
The dose expansion phase was conducted in the following 3 cohorts: • Cohort 1: Subjects with chronic phase (CP) chronic myeloid leukemia (CML) who had previously received at least ≥2 different TKIs and were T315I-negative. A total of 3 dose groups were established: 40 mg qd, 80 mg qd, and 240 mg qd; • Cohort 2: Subjects with chronic phase (CP) chronic myeloid leukemia (CML) who have previously received ≥1 TKI and were T315I-positive. A total of 2 dose groups were established: 40 mg qd and 240 mg qd; • Cohort 3: Subjects with accelerated phase (AP) chronic myeloid leukemia (CML) who have previously received ≥1 TKI, regardless of T315I positivity. A total of 1 dose group was established: 240 mg qd.

[1] = CML-CP subjects with T315I mutation, all doses, 16 evaluable, as of August 24, 2023
[2] = CML-CP subjects with T315I mutation, as of August 24, 2023
[3] = CML-CP subjects with T315I mutation, as of June 2, 2024
[4] = CML-CP with T315I mutation, 10 mg BID, 0 evaluable subjects, as of August 24, 2023
[5] = CML-CP with T315I mutation, 20 mg BID, 1 evaluable subject, as of August 24, 2023
[6] = CML-CP with T315I mutation, 40 mg BID, 1 evaluable subject, as of August 24, 2023
[7] = CML-CP with T315I mutation, 40 mg QD, 2 evaluable subjects, as of August 24, 2023
[8] = CML-CP with T315I mutation, 40 mg/day Total, 3 evaluable subjects, as of August 24, 2023
[9] = CML-CP with T315I mutation, 80 mg BID, 1 evaluable subject, as of August 24, 2023
[10] = CML-CP with T315I mutation, 80 mg QD, 0 evaluable subjects, as of August 24, 2023
[11] = CML-CP with T315I mutation, 80 mg/day Total, 1 evaluable subject, as of August 24, 2023
[12] = CML-CP with T315I mutation, 160 mg QD, 1 evaluable subject, as of August 24, 2023
[13] = CML-CP with T315I mutation, 160 mg/day Total, 2 evaluable subjects, as of August 24, 2023
[14] = CML-CP with T315I mutation, 240 mg QD, 10 evaluable subjects, as of August 24, 2023
[15] = CML-CP with T315I mutation, Total, all dose groups, 16 evaluable subjects, as of August 24, 2023

With `O=C(Nc1ccc(OC(F)(F)Cl)cc1)c1cnc(N2CC[C@@H](F)C2)c(-c2cnccn2)c1` [Compound A, (R)-N-(4-(chlorodifluoromethoxy)phenyl)-6-(3-fluoropyrrolidin-1-yl)-5-(pyrazin-2-yl)nicotinamide] as the compound, how does the CHR (CML-CP subjects with T315I mutation, all doses, 13 evaluable, as of August 24, 2023) read?
Its CHR is 92.3%.

And the CCyR [1]?
The CCyR was 56.3%.

And the MCyR [1]?
Its MCyR is 62.5%.

What about the MMR (CML-CP subjects with T315I mutation, all doses, 17 evaluable, as of August 24, 2023) of the same compound?
Its MMR is 35.3%.

What about the “CHR within 3 treatment cycles” value (CML-CP subjects with T315I mutation, 20 evaluable, as of June 2, 2024) of the same compound?
The value was 80%.

And the “median time to CCyR” value [2]?
The value was 2.83 (2.76, 2.92) months.

What about the “median time to MCyR” value [2] of the same compound?
Its value is 2.81 (2.76, 2.83) months.

What about the “median time to MMR” value [2] of the same compound?
Its value is 2.81 (2.76, 3.68) months.

And the “18-month cumulative incidence of CCyR” value [3]?
Its value is 69%.

And the “18-month cumulative incidence of MCyR” value [3]?
Its value is 76%.

What about the “18-month cumulative incidence of MMR” value [3] of the same compound?
Its value is 50%.

What about the CCyR [4] of the same compound?
The CCyR was 0 n (%).

And the CHR [4]?
Its CHR is 0 n (%).

What about the MCyR [4] of the same compound?
Its MCyR is 0 n (%).

What about the MMR [4] of the same compound?
The MMR was 0 n (%).

And the CCyR [5]?
The CCyR was 1 (100) n (%).

What about the CHR [5] of the same compound?
The CHR was 1 (100) n (%).

What about the MCyR [5] of the same compound?
The MCyR was 1 (100) n (%).

What about the MMR [5] of the same compound?
The MMR was 0 n (%).

What about the CCyR [6] of the same compound?
Its CCyR is 0 n (%).

What about the CHR [6] of the same compound?
The CHR was 1 (100) n (%).

And the MCyR [6]?
Its MCyR is 0 n (%).

And the MMR [6]?
The MMR was 0 n (%).

And the CHR (CML-CP with T315I mutation, 40 mg QD, 0 evaluable subjects, as of August 24, 2023)?
The CHR was 0 n (%).

What about the CCyR [7] of the same compound?
Its CCyR is 2 (100) n (%).

What about the MCyR [7] of the same compound?
Its MCyR is 2 (100) n (%).

And the MMR (CML-CP with T315I mutation, 40 mg QD, 3 evaluable subjects, as of August 24, 2023)?
The MMR was 2 (66.7) n (%).

What about the CHR (CML-CP with T315I mutation, 40 mg/day Total, 1 evaluable subject, as of August 24, 2023) of the same compound?
Its CHR is 1 (100) n (%).

What about the CCyR [8] of the same compound?
The CCyR was 3 (100) n (%).

And the MCyR [8]?
The MCyR was 3 (100) n (%).

And the MMR (CML-CP with T315I mutation, 40 mg/day Total, 4 evaluable subjects, as of August 24, 2023)?
The MMR was 2 (50.0) n (%).

What about the CHR (CML-CP with T315I mutation, 80 mg BID, 0 evaluable subjects, as of August 24, 2023) of the same compound?
The CHR was 0 n (%).

What about the CCyR [9] of the same compound?
The CCyR was 1 (100) n (%).

What about the MCyR [9] of the same compound?
The MCyR was 1 (100) n (%).

What about the MMR [9] of the same compound?
Its MMR is 1 (100) n (%).

And the CCyR [10]?
The CCyR was 0 n (%).

What about the CHR [10] of the same compound?
The CHR was 0 n (%).

What about the MCyR [10] of the same compound?
The MCyR was 0 n (%).

What about the MMR [10] of the same compound?
Its MMR is 0 n (%).

And the CCyR [11]?
The CCyR was 0 n (%).

What about the CHR [11] of the same compound?
Its CHR is 1 (100) n (%).

And the MCyR [11]?
The MCyR was 0 n (%).

What about the MMR [11] of the same compound?
Its MMR is 0 n (%).

What about the CCyR [12] of the same compound?
The CCyR was 1 (100) n (%).

And the CHR [12]?
Its CHR is 1 (100) n (%).

What about the MCyR [12] of the same compound?
Its MCyR is 1 (100) n (%).

What about the MMR [12] of the same compound?
Its MMR is 1 (100) n (%).

What about the CHR (CML-CP with T315I mutation, 160 mg/day Total, 1 evaluable subject, as of August 24, 2023) of the same compound?
The CHR was 1 (100) n (%).

What about the CCyR [13] of the same compound?
Its CCyR is 2 (100) n (%).

What about the MCyR [13] of the same compound?
Its MCyR is 2 (100) n (%).

And the MMR [13]?
The MMR was 2 (100) n (%).

What about the CCyR [14] of the same compound?
The CCyR was 4 (40.0) n (%).

What about the CHR [14] of the same compound?
Its CHR is 9 (90.0) n (%).

And the MCyR [14]?
Its MCyR is 5 (50.0) n (%).

And the MMR [14]?
Its MMR is 2 (20.0) n (%).

What about the CHR (CML-CP with T315I mutation, Total, all dose groups, 13 evaluable subjects, as of August 24, 2023) of the same compound?
Its CHR is 12 (92.3) n (%).

And the CCyR [15]?
The CCyR was 9 (56.3) n (%).

What about the MCyR [15] of the same compound?
Its MCyR is 10 (62.5) n (%).

And the MMR (CML-CP with T315I mutation, Total, all dose groups, 17 evaluable subjects, as of August 24, 2023)?
Its MMR is 6 (35.3) n (%).

Source: EP4803080A1, “METHOD FOR TREATING LEUKEMIA” (Shenzhen TargetRx Co., Ltd., priority 2023, dated 2025)
